Molecules are shown by their SMILES.

This experiment deals with PKLR. Description: PKLR protein level by western blot in HepG2, 2-day drug treatment. The format is cell-based. The settings on record: HepG2, two days of treatment, dosages per FIG. 5, P<0.05, FIG. 2A. The procedure:
WT HepG2 was included in this study and cultured by Roswell Park Memorial Institute (RPMI, […], Sigma Aldrich) 1640 Medium with 10% fetal bovine serum (FBS) and 1% penicillin-streptomycin (PS). To induce a steatosis model into WT HepG2 cells, high glucose Dulbecco's Modified Eagle Media (DMEM, […]/[…], Sigma-Aldrich) containing 10% FBS and 1% PS was used as medium for one week, together with 10 μg/mL insulin and 10 μM T0901317. All of cells were incubated in the incubator with 5% CO2 and 37° C. (Thermo […]). Fresh medium was provided every two days. As for drug-screening, different numbers of HepG2 cells were seeded for distinct experiments. More in details, 40,000 cells and 500,000 cells were used for 2-day-drug treatment in 96-well-plate and 6-well plate, respectively, while 80,000 cells and 300,000 cells were used for one-week drug treatment in 96-well plate and 6-well plate, respectively. […] Fresh medium was provided every two days. Protein content levels were detected by western blot. After the respective treatment of drugs, the cell pellets were lysed in cell lytic M, followed by protein extraction from supernatant (10 min, 13,000r/min centrifuge). Extracted cell lysate was stored in -20° C. Proteins were quantified through Bovine albumin serum (BAS) standard curve with protein assay dye reagent (BIO-RAD). The proteins were separated by SDS-PAGE with 100v in 90 min by mini-protein TGX precast gels (4-15%, 15 wells, 15 μl/well, BIO-RAD), and then transfer to Mini PVDF transfer package through transfer system (Transfer-Turbo, BIO-RAD). After 30 min blocking with 5% skim milk in cold room (4° C.) and washing with TBST, membrane was cut by the size of interested proteins. Primary antibodies were added into the corresponding membrane sections for overnight binding. Then the membranes were washed with TBST, and the secondary antibodies were incubated for 1 h in cold room. The following antibody were used: (Goat pAb to Rb lg, ab205718, abcam; Rb pAb to beta-actin, ab8227, abcam; […]; Rb pAb to fatty acid synthase, ab99539, abcam). The bindings were imaged by immunostaining and machine (ImageQuant LAS 500). All antibodies were purchased from Abcam online, and βactin was used as global normalized protein. After measurement, the strength of signal for each protein was quantified by ImageJ. The background noise was removed, and all results were normalized by the levels of β-actin. To determine the inhibitory effects of these drugs on the expression level of PKLR, HepG2 was selected as the in vitro model for coherence. […] HepG2 cells were treated with these drugs for two days with different dosages due to their potential cellular toxicities (FIG. 5), and the PKLR protein level was the measured by western blotting. The level of protein expression of PKLR of the drug-treated groups was compared to that of the Ctrl group after normalizing with β-actin.

Regarding `N#Cc1c(NC(=O)c2cccc3ccccc23)sc2c1CCCC2` [JNK-IN-5A, N-(3-cyano-4,5,6,7-tetrahydrobenzo [b]thien-2-yl)-1-naphthalenecarboxamide], the “protein expression of PKLR vs Ctrl, normalized with β-actin” value was “significantly down-regulated”. For `O=C(Nc1cccc(Nc2ncc(Br)c(NCCc3cnc[nH]3)n2)c1)N1CCCC1` [BX-912, N-[3-[[5-bromo-4-[[2-(1H-imidazol-5-yl)ethyl]amino]-2-pyrimidinyl]amino]phenyl]-1-pyrrolidinecarboxamide], the “protein expression of PKLR vs Ctrl, normalized with β-actin” value is “significantly down-regulated”.

Values taken from patent US20240366560A1, “SMALL MOLECULE TREATMENT OF FATTY LIVER DISEASE AND HCC” (ScandiEdge Therapeutics AB, priority 2021, published 2024).
